The values below are quoted from earlier work in patent publication US20090270335A1, “COLLYRIUM FOR DRY EYE” (AQUEOUS PHARMA LIMITED, priority 2006, published 2009).

This data set relates to tear secretion. To be noted: topical application.
[1] abbreviates: both in dry eye patients and people not suffering from dry eye.

`CC[C@H](C)[C@H](NC(=O)[C@H](Cc1ccccc1)NC(=O)[C@H](C)NC(=O)[C@H](CC(=O)O)NC(=O)[C@H](CCCCN)NC(=O)[C@H](CO)NC(=O)[C@@H]1CCCN1C(=O)[C@@H]1CCC(=O)N1)C(=O)NCC(=O)N[C@@H](CC(C)C)C(=O)N[C@@H](CCSC)C(N)=O` [eledoisin, Glu-Pro-Ser-Lys-Asp-Ala-Phe-Ile-Gly-Leu-Met-NH2]: under setting [1], the tear secretion rate result is “increase” and the tear volume entry is listed as “increase”. In addition, where the note is “patients”, the “side effect: chemosis” value is on record as “not pronounced” and the “side effect: hyperemia of the conjunctiva” value is “observed initially in some patients”.
